The text below walks through data of patent publication US7442784B2, “Ligand activated transcriptional regulator proteins” (The Scripps Research Institute, priority 1999, dated 2008).

A word on the Kd: it is the constant that tells how readily two partners part at equilibrium.

What all share (test): Finger 2 variant affinity (Table 5)
Holding throughout (assay type): binding

In assay [1] the target is Finger-2 Subsite GTT. An excerpt:
(§1) Finger 2 variants recognizing each of the 16 triplets of the GXX set (Segal et al. (1999) Proc. Natl. Acad. Sci. U.S.A. 96:2758-2763; and Table 1), as well as one variant recognizing TGA, have been successfully selected. […] Thus, a 5′- and 3′-G selected an arginine at helix positions 6 and −1, respectively, while a central G selected an a histidine or lysine at position 3 of the recognition helix. In contrast, a central A selected an asparagine, a 3′-A a glutamine, a central T a serine or alanine, a 3′-T a threonine or serine, a central C an aspartate or threonine, and a 3′-C an aspartate or glutamate at the corresponding helix positions.
(§2) In Table 5, below, the finger 2 variants generated by phage display selection and refined by site-directed mutagenesis are summarized. Protein designations are in the form pXXX, for clones derived from panning; pmXXX refers to clones refined by mutagenesis. Helix positions −1, 3, and 6 are shown in bold, altered nucleotides are underlined. The values represent the results of at least two independent experiments. The standard error was ±50% or less.

Assay [2] has as its target Finger-2 Subsite GAG.
From the text: as §1, §2

The target in assay [3] is Finger-2 Subsite GTG.
From the text: as §1, §2

Take “pmGTT: finger 2 variant refined by mutagenesis, helix STSGSLVR”: in assay [1], the “KD,Prot/KD,Zif268” value came out at 0.5 and the Kd came to 5 nM.
Regarding “pmGTG: finger 2 variant refined by mutagenesis, helix SRSDELVR”, in assay [2], the “KD,Prot/KD,Zif268” value turned out to be 3.0 and the Kd came to 30 nM. Further, in assay [3], the “KD,Prot/KD,Zif268” value was found to be 1.5 and the affinity, expressed as Kd, was 15 nM.
